Test results taken from ChEMBL document CHEMBL1127772, “Pyrazolo[1,5-a]pyridines and pyrazolo[1,5-b]pyridazines as 5ht3-antagonists” (Bioorg Med Chem Lett, 1994).

Key:
[1] = molecular target: T1, Serotonin 3 (5-HT3) receptor (Rattus norvegicus) (UniProt P35563+Q9JJ16); test: Antagonism of 5-HT-induced Von Bezold-Jarisch reflex in rat after intravenous administration of 30 ug/kg of HT (5-hydroxytryptamine 3 receptor antagonism); assay type: functional, organism-based
[2] = molecular target: T2, 5-hydroxytryptamine receptor 1A (Homo sapiens, UniProt P08908); test: Tested for binding affinity for 5-hydroxytryptamine 1A receptor
T2 sequence (P08908 whole entry): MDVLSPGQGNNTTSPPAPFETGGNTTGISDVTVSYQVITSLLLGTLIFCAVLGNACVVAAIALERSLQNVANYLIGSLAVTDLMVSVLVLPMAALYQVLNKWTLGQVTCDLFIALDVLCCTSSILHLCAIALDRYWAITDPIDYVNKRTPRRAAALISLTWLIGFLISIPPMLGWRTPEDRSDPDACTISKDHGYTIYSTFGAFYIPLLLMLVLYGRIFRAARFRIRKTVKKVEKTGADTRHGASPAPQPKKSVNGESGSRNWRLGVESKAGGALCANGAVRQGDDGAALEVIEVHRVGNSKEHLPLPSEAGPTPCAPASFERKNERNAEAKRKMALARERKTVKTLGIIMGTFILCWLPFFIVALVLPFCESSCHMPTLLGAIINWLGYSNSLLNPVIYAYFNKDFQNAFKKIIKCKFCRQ

[3] = molecular target: T3, D(2) dopamine receptor (Homo sapiens, UniProt P14416); test: Tested for binding affinity for Dopamine D2 receptor
T3 sequence (P14416 whole entry): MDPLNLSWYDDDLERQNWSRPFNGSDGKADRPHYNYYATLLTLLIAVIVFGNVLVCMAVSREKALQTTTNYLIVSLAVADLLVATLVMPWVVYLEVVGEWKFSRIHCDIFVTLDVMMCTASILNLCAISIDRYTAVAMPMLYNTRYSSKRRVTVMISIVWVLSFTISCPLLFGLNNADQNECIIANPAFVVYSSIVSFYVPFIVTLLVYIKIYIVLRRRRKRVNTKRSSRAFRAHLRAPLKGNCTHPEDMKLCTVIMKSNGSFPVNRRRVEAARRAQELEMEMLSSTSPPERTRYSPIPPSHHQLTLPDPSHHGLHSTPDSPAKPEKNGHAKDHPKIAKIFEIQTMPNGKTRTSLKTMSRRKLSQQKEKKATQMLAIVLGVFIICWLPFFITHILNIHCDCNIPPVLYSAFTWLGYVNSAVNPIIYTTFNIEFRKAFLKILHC

[4] = molecular target: T4, Serotonin 3 (5-HT3) receptor (Rattus norvegicus, UniProt P35563+Q9JJ16); test: Inhibition of 5-HT (1 ug/mL) induced depolarization in rat vagus nerve (5-hydroxytryptamine 3 receptor antagonism); assay type: functional, tissue-based
T4 sequence (P35563 whole entry): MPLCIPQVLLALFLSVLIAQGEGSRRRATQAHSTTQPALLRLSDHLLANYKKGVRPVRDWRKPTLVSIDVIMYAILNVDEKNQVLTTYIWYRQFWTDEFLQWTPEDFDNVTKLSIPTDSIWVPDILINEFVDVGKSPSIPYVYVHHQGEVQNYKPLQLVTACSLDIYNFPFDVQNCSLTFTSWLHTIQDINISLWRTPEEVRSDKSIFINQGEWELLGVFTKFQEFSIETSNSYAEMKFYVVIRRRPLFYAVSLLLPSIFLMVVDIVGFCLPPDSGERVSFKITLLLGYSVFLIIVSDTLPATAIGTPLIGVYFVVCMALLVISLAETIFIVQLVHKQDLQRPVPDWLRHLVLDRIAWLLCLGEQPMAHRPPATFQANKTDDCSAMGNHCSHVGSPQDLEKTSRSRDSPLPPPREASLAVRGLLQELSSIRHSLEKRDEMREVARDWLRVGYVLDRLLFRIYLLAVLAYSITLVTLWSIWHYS
T4 sequence (Q9JJ16 whole entry): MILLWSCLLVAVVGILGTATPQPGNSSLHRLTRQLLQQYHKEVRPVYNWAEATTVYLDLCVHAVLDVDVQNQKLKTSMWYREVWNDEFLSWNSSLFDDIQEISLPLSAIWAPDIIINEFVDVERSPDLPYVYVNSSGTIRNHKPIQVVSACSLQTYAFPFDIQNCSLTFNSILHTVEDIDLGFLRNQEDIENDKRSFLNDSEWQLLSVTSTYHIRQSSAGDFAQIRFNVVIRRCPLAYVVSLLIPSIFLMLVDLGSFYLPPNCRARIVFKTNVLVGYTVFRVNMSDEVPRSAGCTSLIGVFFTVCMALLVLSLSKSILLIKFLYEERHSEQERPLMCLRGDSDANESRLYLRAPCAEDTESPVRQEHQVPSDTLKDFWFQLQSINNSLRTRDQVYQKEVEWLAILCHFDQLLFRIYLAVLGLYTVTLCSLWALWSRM

[5] = molecular target: T4, Serotonin 3 (5-HT3) receptor; test: Inhibition of [3H]GR-65630 binding to rat cortical membrane serotonin 3 receptor
[6] = molecular target: Serotonin 2 (5-HT2) receptor (Homo sapiens, UniProt P41595+P28223+P28335); test: Tested for binding affinity for 5-hydroxytryptamine 2 receptor; assay type: protein assay
[7] = molecular target: T1, Serotonin 3 (5-HT3) receptor (Rattus norvegicus); test: Ability to antagonise the 5-HT- induced Von Bezold-Jarisch reflex in the rat after intravenous administration of 30 ug/kg of HT (5-hydroxytryptamine 3 receptor); assay type: functional, organism-based
[8] = molecular target: T3, D(2) dopamine receptor; test: Tested for binding affinity for Dopamine D2 receptors
[9] = molecular target: T4, Serotonin 3 (5-HT3) receptor; test: Tested for inhibition of binding of [3H]GR-65630 to rat cortical membranes, expressed as IC50; assay type: cell membranes, Membrane

`CN1C2CCC1CC(NC(=O)c1cnn3ccccc13)C2` (stereo not given) gave an ED50 [1] of 0.74 µg/kg, an IC50 [2] of over 10 µM and an IC50 [3] of over 10 µM. The IC50 [4] was 105 nM, the IC50 [5] was 34 nM and the IC50 [6] was over 10 µM.
For `Cc1nn2ccccc2c1C(=O)NC1CC2CCCC(C1)N2C` (stereo not given), the ED50 [1] was 6 µg/kg, the IC50 [4] was 100 nM and the IC50 [5] was 64 nM.
Compound `O=C(N[C@H]1CN2CCC1C2)c1cnn2ccccc12` (stereo not given in full) has an ED50 [1] of 2 µg/kg, an IC50 [4] of 124 nM and an IC50 [5] of 52 nM.
Compound `Cc1nn2ncccc2c1C(=O)NC1CC2CCC(C1)N2C` (stereo not given) has an ED50 [7] of 0.05 mg/kg and an IC50 [5] of 122 nM.
`O=C(NC1CN2CCC1CC2)c1cnn2ccccc12` (stereo not given) gave an ED50 [1] of 1 µg/kg, an IC50 [4] of 83 nM and an IC50 [5] of 75 nM.
Compound `O=C(N[C@@H]1CN2CC[C@@H]1C2)c1cnn2ccccc12` has an ED50 [1] of 8 µg/kg, an IC50 [4] of 419 nM and an IC50 [5] of 72 nM.
Work on `CN1C2CCC1CC(OC(=O)c1cnn3ccccc13)C2` (stereo not given) yielded an ED50 [1] of 2 µg/kg, an IC50 [2] of over 10 µM and an IC50 [8] of over 10 µM. For the same compound, the IC50 [5] was 28 nM and the IC50 [6] was over 10 µM.
`CN1C2CCCC1CC(NC(=O)c1cnn3ncccc13)C2` (stereo not given) showed an ED50 [7] of over 0.1 mg/kg and an IC50 [9] of 818 nM.
In the case of `CN1C2CCCC1CC(NC(=O)c1cnn3ccccc13)C2` (stereo not given), the ED50 [1] is reported as 5 µg/kg, the IC50 [4] is reported as 300 nM and the IC50 [5] is reported as 170 nM.
Work on `CN1C2CCC1CC(NC(=O)c1cnn3ncccc13)C2` (stereo not given) yielded an ED50 [1] of 30 µg/kg and an IC50 [5] of 429 nM.
`Cc1nn2ccccc2c1C(=O)NC1CC2CCC(C1)N2C` (stereo not given) was tested, and the ED50 [7] was 0.0012 mg/kg, the IC50 [4] was 42 nM and the IC50 [5] was 26 nM.
For `CN1[C@@H]2CC[C@H]1C[C@@H](OC(=O)c1c[nH]c3ccccc13)C2` [TROPISETRON], the ED50 [1] was 0.5 µg/kg, the IC50 [4] was 1.4 nM and the IC50 [5] was 3.1 nM.
In the case of `Cc1nn2ncccc2c1C(=O)NC1CC2CCCC(C1)N2C` (stereo not given), the ED50 [7] is reported as over 0.05 mg/kg and the IC50 [5] is reported as over 300 nM.
